Results on 15 compounds are retold here after publication PMC10002963, “[4+2]-Cycloaddition to 5-Methylidene-Hydantoins and 5-Methylidene-2-Thiohydantoins in the Synthesis of Spiro-2-Chalcogenimidazolones” (International Journal of Molecular Sciences, 2023).

Data set [1] deals with HEK293T cell line. As to the kind of experiment: MTT cytotoxicity assay, HEK293T. The format is cell-based, human. As for the experimental part: (§1) Some of the obtained spiro-derivatives were tested for cytotoxicity using the standard MTT assay. Cytotoxicity was evaluated using the cell lines of various etiologies: breast cancer MCF7, human lung carcinoma A549, non-cancer human embryonic kidney cell line HEK293T, and non-cancer lung fibroblast VA13 cell line. Lung cancers and breast cancers are among the most common causes of tumor lesions and related death in the world, and non-cancerous cells were applied for the specificity of action evaluation. The results are shown in Table 5; the dose-response dependency graphs are available in Supplementary Information.
(§2) Cell cultures. Human embryonic kidney HEK293T cell line was kindly provided by Dr. E. Knyazhanskaya; immortalized human fibroblasts cell line VA13 was kindly provided by Dr. M. Rubtsova; human breast cancer cell line MCF7 and human lung adenocarcinoma cell line A549 were kindly provided by Dr. S. Dmitriev. MCF7, VA13, A549, and HEK293T cell lines were maintained in DMEM/F-12 (Thermo Fisher Scientific, Waltham, Massachusetts, USA) culture medium containing 10% fetal bovine serum (Thermo Fisher Scientific, Waltham, Massachusetts, USA) and 50 µg/mL penicillin and 0.05 mg/mL streptomycin at 37°C (Thermo Fisher Scientific, Waltham, Massachusetts, USA) in 5% CO2. Cells were maintained at 37°C in a humidified incubator MCO-18AC (Sanyo, Japan) supplied with 5% CO2. Cell cultures were tested for the absence of mycoplasma.
(§3) In Vitro Survival Assay (MTT Assay). The cytotoxicity was tested using the MTT (3-(4,5-dimethylthiazol-2-yl)2,5-diphenyl tetrazolium bromide) assay with some modifications. A total of 2500 cells per well for the MCF7, HEK293T cell lines, 3000 cells for the A549 cell line, or 4000 cells per well for the VA-13 cell line were plated out in 135 µL of DMEM-F12 media (Gibco, USA) in a 96-well plate and then incubated in the 5% CO2 incubator for first 20 h without treating. After this, 15 µL of media-DMSO solutions of tested substances were added to the cells (final DMSO concentrations in the media were 0,5% or less) and treated for65 h with 45 nM–100 µM (eight dilutions) of our substances (triplicate each) and doxorubicin as a control substance. Then the MTT reagent (Paneco LLC, Moscow, Russia) was added to cells up to the final concentration of 0.5 g/L (10 × stock solution in PBS was used), and cells were incubated for 2 h at 37 °C under an atmosphere of 5% CO2. Then the MTT solution was discarded, and 140 µL of DMSO (PharmaMed LLC, Russia) was added. The plates were swayed on a shaker (200 rpm) to dissolve the formazan. The absorbance was measured using a microplate reader (VICTOR ×5 Light Plate Reader, PerkinElmer, USA) at a wavelength of 555 nm (in order to measure formazan concentration). The results were used to construct dose-response graphs and to estimate IC50absvalues (IC50abs is the concentration resulting in a two-fold decrease in the number of cells in comparison with the untreated cells) and, in some cases, IC50 values (IC50 is the concentration resulting in half of the maximal cytotoxic effect) with GraphPadSoftware, Inc., San Diego, CA, USA.

Data set [2] has as its system A549 cell line. As to the kind of experiment: MTT cytotoxicity assay, A549. In kind it is cell-based, human. Here is the method: as §1, §2, §3
A general note: Tetrazolium assays rely on reduction of a dye to a coloured formazan, in cell work by metabolically active cells.

Data set [3] concerns VA13 cell line. As to the kind of experiment: MTT cytotoxicity assay, VA13. In kind it is cell-based, human. As for the experimental part:
as §1, §2, §3

The test system of data set [4] is E. coli BW25113 DTC. As to the kind of experiment: Minimal inhibitory concentration, E. coli BW25113 DTC. The format is cell-based, Escherichia coli. As for the experimental part:
(§4) Then the minimal inhibitory concentration (MIC) was measured for E. coli BW25113 DTC and E. coli K-12 (WT) for the 12 most bacteriotoxic compounds from the plate test.
(§5) Determination of Minimal Inhibitory Concentration (MIC). MIC values were determined by monitoring growth in 96-well plates of E. coli cultures exposed to serial dilutions of compounds. Specifically, overnight E. coli BW25113 DTC and K12 cultures were diluted in 96-well plates to an OD590 of 0.01 in LB medium. The wells were then supplemented with the solution of each tested compound at concentrations of 1 mM, 500 µM, 250 µM, 125 µM, 62.5 µM, 31.25 µM, 15.63 µM, 7.81 µM, 3.91 µM, and 1.95 µM. Then the plates were incubated with shaking (200 r.p.m.) overnight at 37°C, and cell growth was assessed by scanning OD590 each well with a VictorX5 reader.

Data set [5] has as its system MCF7 cell line. Description: MTT cytotoxicity assay, MCF7. The format is cell-based, human. Here is the method: as §1, §2, §3
In data set [6] the test system is E. coli K-12 (WT). As to the kind of experiment: Minimal inhibitory concentration, E. coli K-12. In kind it is cell-based, Escherichia coli. The conditions noted are these: LB medium, overnight 37°C, >1000 = inactive in this test. Here is the method:
as §4, §5

The mark [7] stands for this setting: 65-h treatment, Cmax 100 µM, read-out: IC50abs.
The mark [8] stands for this setting: A549, 65-h treatment, MTT, Cmax 100 µM, read-out: IC50abs.
Setting [9] is: VA13, 65-h treatment, MTT, Cmax 100 µM, read-out: IC50abs.
The mark [10] stands for this setting: E. coli BW25113 DTC, LB medium, overnight 37°C, >1000 = inactive in this test.
Setting [11] is: Table S1, read-out: IC50 (concentration resulting in half of the maximal cytotoxic effect).
Setting [12] is: A549, MTT, Table S1, read-out: IC50 (concentration resulting in half of the maximal cytotoxic effect).
Where [13] appears, read: MCF7, 65-h treatment, MTT, Cmax 100 µM, read-out: IC50abs.
The mark [14] stands for this setting: MCF7, MTT, Table S1, read-out: IC50 (concentration resulting in half of the maximal cytotoxic effect).
[15] abbreviates: VA13, MTT, Table S1, read-out: IC50 (concentration resulting in half of the maximal cytotoxic effect).
Setting [16] is: Homo sapiens, HEK-293T, 65-h treatment, Cmax 100 µM, read-out: IC50abs.
[17] abbreviates: Homo sapiens, A549, 65-h treatment, MTT, Cmax 100 µM, read-out: IC50abs.
The mark [18] stands for this setting: Homo sapiens, MCF7, 65-h treatment, MTT, Cmax 100 µM, read-out: IC50abs.
Setting [19] is: Homo sapiens, VA-13, VA13, 65-h treatment, MTT, Cmax 100 µM, read-out: IC50abs.

Values after ≈ are worked out from the molar mass of the structure shown. Read-outs that look alike come from different tables or passages of the source.

For `CC1=C(C)CC2(CC1)NC(=S)N(c1ccccc1F)C2=O` (racemic) [Compound 54], the IC50 in data set [1] (setting [7]) is 29.6 ± 3 µM; in data set [2] (setting [8]) it was 49.5 ± 5 µM; in data set [3] (setting [9]), > 100 µM.

Regarding `CC1=C(C)CC2(CC1)NC(=S)N(c1ccccc1Cl)C2=O` (racemic) [Compound 55], the MIC in data set [4] (setting [10]) and in data set [6] was >1000 µM throughout. The IC50 in data set [1] (setting [7]) was ~5 µM; in data set [1] (setting [11]), 3.1 µM; in data set [2] (setting [8]) it was ~10 µM; in data set [2] (setting [12]) it was 2.1 µM; in data set [5] (setting [13]), ~100 µM; in data set [5] (setting [14]), 1.5 µM. Further, the figures for the IC50 in data set [3] (setting [9]) and in data set [3] (setting [15]) were > 100 µM and 1.9 µM, respectively.

Turning to `CC1=C(C)CC2(CC1)NC(=S)N(c1cccc(C)c1)C2=O` (racemic) [Compound 56], the IC50 in data set [1] (setting [7]) was 22 ± 8 µM; in data set [2] (setting [8]), > 100 µM; in data set [3] (setting [9]), 98.7 ± 17.6 µM.

In the case of `CC1=C(C)CC2(CC1)NC(=S)N(c1ccc(F)cc1)C2=O` (racemic) [Compound 58], the IC50 in data set [1] (setting [7]) worked out at 13.7 ± 2.3 µM; in data set [2] (setting [8]), 23.2 ± 3.5 µM; in data set [5] (setting [13]), 59 ± 13.3 µM; in data set [3] (setting [9]), 45 ± 7.5 µM.

`COc1ccc(N2C(=O)C3(CCC(C)=C(C)C3)NC2=S)cc1` (racemic) [Compound 60]: the MIC in data set [4] (setting [10]) and in data set [6] was >1000 µM in each case. The IC50 was 10.2 ± 1.3 µM in data set [1] (setting [7]), 52.2 ± 5.7 µM in data set [2] (setting [8]), 98.3 ± 19.8 µM in data set [5] (setting [13]) and 75.3 ± 17 µM in data set [3] (setting [9]).

In the case of `CC1=C(C)CC2(CC1)NC(=S)N(c1c(C)cccc1C)C2=O` (racemic) [Compound 61], the IC50 in data set [1] (setting [7]) is ~4 µM; in data set [1] (setting [11]), 1.4 µM; in data set [2] (setting [8]), ~10 µM; in data set [2] (setting [12]) it was 4.2 µM; in data set [5] (setting [13]), ~100 µM; in data set [5] (setting [14]) it was 0.9 µM. In addition, in data set [3] (setting [15]), the IC50 stood at 0.4 µM.

On to `O=C1N[C@@]2(C[C@@H]3C=C[C@H]2C3)C(=O)N1c1ccccc1` [Compound 28a], for which the MIC (in general, the lowest concentration that inhibits growth of the organism) was > 1000 µM in data set [4] (Escherichia coli, BW25113) and > 1000 µM in data set [6] (Escherichia coli). The IC50 in data set [1] (setting [16]), in data set [2] (setting [17]), in data set [5] (setting [18]) and in data set [3] (setting [19]) was > 100 µM throughout.

Take `O=C1N(c2ccccc2)C(=S)NC12CC1C=CC2C1` (stereo not drawn) [Compound 34a]: the IC50 in data set [1] (setting [16]) is 83 ± 3.7 µM; in data set [2] (setting [17]) it was > 100 µM; in data set [5] (setting [18]) it was > 100 µM; in data set [3] (setting [19]), > 100 µM.

With `Cc1cccc(N2C(=O)C3(CC4C=CC3C4)NC2=S)c1` (stereo not drawn) [Compound 37a], the IC50 in data set [1] (setting [7]), in data set [2] (setting [8]), in data set [5] (setting [13]) and in data set [3] (setting [9]) was > 100 µM in each case.

For `COc1cccc(N2C(=O)C3(CC4C=CC3C4)NC2=S)c1` (stereo not drawn) [Compound 38a], the IC50 in data set [2] (setting [8]), in data set [5] (setting [13]) and in data set [3] (setting [9]) was > 100 µM throughout.

As for `COc1ccc(N2C(=O)C3(CC4C=CC3C4)NC2=S)cc1` (stereo not drawn) [Compound 39b], the IC50 in data set [2] (setting [8]), in data set [5] (setting [13]) and in data set [3] (setting [9]) was > 100 µM each time.

In the case of `O=C1N(c2ccccc2)C(=S)NC12CC1C=CC2CC1` (stereo not drawn) [Compound 45a], the IC50 in data set [1] (setting [16]) was 21.3 ± 2.3 µM; in data set [2] (setting [17]) it was 85.2 ± 10.1 µM; in data set [5] (Homo sapiens, MCF7, 65-h treatment, MTT, Cmax 100 µM, marked **, read-out: IC50abs, calculated by data extrapolation, exceeds Cmax) it was > 100 µM; in data set [3] (setting [19]) it was > 100 µM.

As to `COc1cccc(N2C(=O)C3(CCC(C)=C(C)C3)NC2=S)c1` (stereo not drawn) [Compound 57], the IC50 in data set [1] (setting [16]) was found to be 18.3 ± 1.7 µM; in data set [2] (setting [17]), 35.4 ± 4.8 µM; in data set [5] (setting [18]), 50.6 ± 5.2 µM; in data set [3] (setting [19]) it was 80.8 ± 13.7 µM.

In the case of `CC1=C(C)CC2(CC1)NC(=S)N(c1ccc(Cl)cc1)C2=O` (stereo not drawn) [Compound 59], the IC50 in data set [1] (setting [7]) was found to be 4.4 ± 0.6 µM; in data set [2] (setting [8]), 26.2 ± 3.9 µM; in data set [5] (setting [13]), 76.6 ± 16 µM; in data set [3] (setting [9]), 52.6 ± 7.8 µM.

In the case of `COc1cccc(N2C(=O)NC3(CCC(C)=C(C)C3)C2=O)c1` (stereo not drawn) [Compound 77], in data set [4] (Escherichia coli, BW25113), 125 µM (≈ 37.5 µg/mL) was the least that counted as inhibitory (MIC).
